# Test results reported in patent US20230346785A1, “4-PYRROLIDIN-1-Yl-5-P-TOLYL-THIENO[2,3-D] PYRIMIDINE FOR USE IN THE TREATMENT OF AGING-ASSOCIATED AND PREMATURE AGING DISEASES THROUGH RESTORED CHROMOSOMAL STABILITY AND INHIBITION OF CELLULAR SENESCENCE” (IBMC - INSTITUTO DE BIOLOGIA MOLECULAR E CELULAR, priority 2020, published 2023).
# Columns and labels:
# Assay type in all cases: cell-based
# [1] = test system: elderly human dermal fibroblasts (HDF); assay: Micronuclei (MN) counts; details: 1 µM, 24-hour exposure (FIG. 4F)
# Experimental: (§1) Human dermal fibroblasts (HDFs) retrieved from skin samples of neonatal (No. GM21811, Coriell Institute; No. DFM021711A, Zen Bio) and octogenarian (No. AG07135; AG13993; AG09271; AG10884; all from Coriell Institute) were used. All donors were reported as “healthy”. For all experiments, HDFs were seeded at 1x10^4 cells per cm2 of growth area in minimal essential medium Eagle-Earle (MEM) supplemented with 15% fetal bovine serum (FBS), 2 mM L-glutamine, and 1x antibiotic-antimycotic (all from Gibco, Thermo Fisher Scientific). Only early passage dividing fibroblasts (up to passage 3-5) with cumulative population doubling level PDL < 24 were used.
# (§2) For image analysis, both live-cell phenotypes (mitotic duration, lagging chromosomes) and fixed-cell experiments (protein intensity, k-fiber intensity, KT distances, FISH, MN counts, cGAS positivity and SA biomarkers) were blindly quantified using ImageJ/Fiji software. […] DNA aggregates co-localizing with cGAS were scored as MN positive for cGAS. For the analysis of SA biomarkers (53bpl/p21 and SA-β-galactosidase), fluorescence intensity thresholds were set and used consistently for all samples within each experiment. […]
# [2] = test system: elderly human dermal fibroblasts (HDF); assay: Interphase FISH aneusomy index of chromosomes 7, 12 and 18; details: 1 µM
# Experimental: as §1
# For FISH, MN counts, cGAS immunofluorescence and SA biomarkers, images were captured with the IN Cell Analyzer 2000 (GE Healthcare, UK) equipped with a Photometrics CoolSNAP K4 camera and driven by the GE IN Cell Analyzer 2000 v5.2 software, using a Nikon 20x/0.45 NA Plan Fluor objective and a Nikon 40x/0.95 NA Plan Fluor objective, respectively.
# 1 µM of UMK57 was used to enhance kinesin-13 activity during the time periods indicated for each experiment.
# (§3) FISH was used to score aneusomy indexes (Interphase FISH; FIGS. 4D, 5C) and chromosome mis-segregation (MS) rates. MS rates were scored by Cyto-D FISH (FIGS. 4E and 5D), or by FISH on STLC-washed-out fibroblasts (FIGS. 1G,H). […]
# [3] = test system: elderly human dermal fibroblasts (HDF); assay: Cyto-D FISH chromosome mis-segregation in cytokinesis-blocked binucleated (BN) cells; details: 1 µM
# Experimental: as §1
# Proteasome inhibitor MG-132 (474790, EMD Millipore) was used at 5 µM for 2 hrs to arrest cells at the metaphase stage. Cytochalasin D (C8273, Sigma-Aldrich) was used at 1 µM for 24 hrs to block cytokinesis. Fibroblasts were treated with 2.5 µM STLC (2191, TOCRIS) for 5 hrs to inhibit kinesin-5 activity and induce monopolar spindles, followed by a washout into fresh medium with 500 nM of Aurora kinase B inhibitor ZM447439 (S1103, Selleckchem) to potentiate chromosome segregation errors. […]
# as §3
# [4] = test system: elderly human dermal fibroblasts (HDF); assay: Calcium-stable k-fiber intensity analysis in metaphase; details: 1 µM
# Experimental: Human dermal fibroblasts (HDFs) retrieved from skin samples of neonatal (No. GM21811, Coriell Institute; No. DFM021711A, Zen Bio) and octogenarian (No. AG07135; AG13993; AG09271; AG10884; all from Coriell Institute) were used. All donors were reported as “healthy”. For all experiments, HDFs were seeded at 1x10^4 cells per cm2 of growth area in minimal essential medium Eagle-Earle (MEM) supplemented with 15% fetal bovine serum (FBS), 2 mM L-glutamine, and 1x antibiotic-antimycotic (all from Gibco, Thermo Fisher Scientific). Only early passage dividing fibroblasts (up to passage 3-5) with cumulative population doubling level PDL < 24 were used. […]
# In fluorescence microscopy, cells with calcium-stabilized k-fibers or stained for specific kinetochore/centromere-bound proteins (Aurora B/Aim-1, Hec1/Ndc80, MCAK, Plk1, pAuroraB T232 and ACA) were imaged using a Zeiss AxioImager Z1 (Carl Zeiss, Oberkochen, Germany) motorized upright epifluorescence microscope, equipped with an Axiocam MR camera and operated by the Zeiss Axiovision v4.7 software. […]
# For image analysis, both live-cell phenotypes (mitotic duration, lagging chromosomes) and fixed-cell experiments (protein intensity, k-fiber intensity, KT distances, FISH, MN counts, cGAS positivity and SA biomarkers) were blindly quantified using ImageJ/Fiji software. […] DNA aggregates co-localizing with cGAS were scored as MN positive for cGAS. […]
# [5] = test system: elderly human dermal fibroblasts (HDF); assay: SA-β-galactosidase activity assay; details: 1 µM
# Experimental: as §1, §2
# [6] = test system: elderly human dermal fibroblasts (HDF); assay: 53BP1/p21 double immunostaining senescence biomarkers; details: 1 µM
# Experimental: as §1
# For immunofluorescence, fibroblasts were grown on sterilized glass coverslips coated with 50 µg/ml fibronectin (F1141, Sigma-Aldrich) and fixed with 4% paraformaldehyde in PBS for 20 min. […]
# as §2
# [7] = test system: elderly human dermal fibroblasts (HDF); assay: Mitotic duration by long-term phase-contrast time-lapse microscopy, elderly cells
# Experimental: as §1, §2
# (§4) FIG. 4: Small molecule agonist of MCAK activity UMK57 rescues age-associated CIN and delays senescence. […] (D) Aneusomy index of chromosomes 7, 12 and 18 measured by interphase FISH analysis. […]
# [8] = test system: neonatal (N) human dermal fibroblasts (HDF); assay: Mitotic duration by long-term phase-contrast time-lapse microscopy, neonatal cells; details: 1 µM, 24 hrs (FIG. 4A)
# Experimental: as §1, §2, §4
structure (smiles),measurement,setting,value
"Cc1ccc(-c2csc3ncnc(N4CCCC4)c23)cc1 [UMK57, 4-Pyrrolidin-1-yl-5-p-tolyl-thieno[2,3-d] pyrimidine]",MN (micronuclei) levels,[1],partly decreased
same,"levels of aneuploidy (aneusomy index, interphase FISH)",[2]; 24 hrs (FIG. 4D),decreases the levels of aneuploidy
same,aneuploidy (interphase FISH),[2]; 96 hours (FIG. 5C),inhibited
same,chromosome mis-segregation rate in binucleated (BN) cells,"[3]; 24 hrs, cytochalasin D (FIG. 4E)",decreases
same,chromosome mis-segregation (BN cells FISH),[3]; 96 hours (FIG. 5D),inhibited
same,number of stable k-MT attachments in metaphase (calcium-stable k-fiber intensity),"[4]; 24 hrs (FIG. 4B,C)",decreases the number of stable k-MT attachments in metaphase
same,k-fiber intensity levels in metaphase,[4]; 96 hours (FIG. 5B),decreased k-fiber intensity levels
same,percentage of cells exhibiting SA-β-galactosidase activity,[5]; 24-hour treatment (FIG. 4H),partially rescue
same,senescence markers: SA-β-gal positive cells,[5]; 96 hrs (FIG. 5F),partial rescue
same,percentage of cells exhibiting the senescence biomarkers 53bp1+p21,[6]; 24-hour treatment (FIG. 4G),partially rescue
same,senescence markers: 53BP1/p21 positive cells,[6]; 96 hrs (FIG. 5E),partial rescue
same,mitotic delay of elderly cells,"[7]; 1 µM, 96-hour treatment (FIG. 5A)",rescued
same,concentration sufficient to rescue the increased mitotic duration in elderly cells,"[7]; increasing concentrations, 24-hour time-lapse (FIG. 4A)",1 µM
same,effect on the mitotic progression of neonatal cultures,[8],no noticeable effect
